The text below walks through data of ChEMBL document CHEMBL4196217, “Structure-Based Drug Design and Identification of H2O-Soluble and Low Toxic Hexacyclic Camptothecin Derivatives with Improved Efficacy in Cancer and Lethal Inflammation Models in Vivo” (J Med Chem, 2018).

The test system of one series is Bel-7402. Briefly: Cytotoxicity in human Bel7402 cells assessed as reduction in cell viability incubated for 48 hrs by MTT assay. In kind it is functional, cell-based. The note with it: Bel-7402, 48 h. A general note: Tetrazolium dyes change colour on reduction, which living cells bring about.
Series [1] relates to HepG2. Briefly: Cytotoxicity in human HepG2 cells assessed as reduction in cell viability incubated for 48 hrs by MTT assay. In kind it is functional, cell-based. The note with it: HepG2, 48 h.
In another series the test system is QGY-7703. Briefly: Cytotoxicity in human QGY7703 cells assessed as reduction in cell viability incubated for 48 hrs by MTT assay. In kind it is functional, cell-based. The note with it: QGY-7703, 48 h.
A further series deals with SMMC-7721. Briefly: Cytotoxicity in human SMMC7721 cells assessed as reduction in cell viability incubated for 48 hrs by MTT assay. The note with it: SMMC-7721, 48 h. In kind it is functional, cell-based.
Another series relates to MGC-803. Briefly: Cytotoxicity in human MGC803 cells assessed as reduction in cell viability incubated for 48 hrs by MTT assay. In kind it is functional, cell-based. The note with it: MGC-803, 48 h.
The test system of another series is MDA-MB-231. Briefly: Cytotoxicity in human MDA-MB-231 cells assessed as reduction in cell viability incubated for 48 hrs by MTT assay. In kind it is functional, cell-based. The note with it: MDA-MB-231, 48 h.
A further series relates to A549. Briefly: cells. The note with it: Homo sapiens, A549, 48 h.
For the next series, the system named is MCF7. Briefly: cells. The note with it: Homo sapiens, MCF7, 48 h.
A further series deals with KB. Briefly: Cytotoxicity in human KB cells assessed as reduction in cell viability incubated for 48 hrs by MTT assay. In kind it is functional, cell-based.
For the next series, the system named is SK-N-SH. Briefly: Cytotoxicity in human SK-N-SH cells assessed as reduction in cell viability incubated for 48 hrs by MTT assay. In kind it is functional, cell-based.
The next series concerns SGC-7901. Briefly: Cytotoxicity in human SGC7901 cells assessed as reduction in cell viability incubated for 48 hrs by MTT assay. In kind it is functional, cell-based. The note with it: SGC-7901, 48 h.
The test system of series [2] is Mus musculus. Briefly: Toxicity in Balb/C mouse administered as single dose measured daily for up to 28 days. In kind it is organism-based. The note with it: in vivo, 672 h.
Series [3] relates to Mus musculus. Briefly: Toxicity in Balb/C mouse administered as daily dose for 1 week measured daily for up to 28 days. In kind it is organism-based. The note with it: in vivo.
The nature of series [4]: Aqueous solubility of the compound. In kind it is physicochemical. The note with it: buffer.
For series [5], the system named is Mus musculus. Briefly: Reduction in IL6 level in C57BL/6 mouse model of LPS-induced sepsis at 4 mg/kg, po dosed 0.5 hrs before LPS injection followed by 4 mg/kg, po dosing at 1 hr, 4 hrs, and 8 hrs after LPS treatment. In kind it is functional, organism-based.
The subject of series [6] is Mus musculus. Briefly: Reduction in IL6 level in C57BL/6 mouse model of LPS-induced sepsis at 8 mg/kg, po dosed 0.5 hrs before LPS injection followed by 8 mg/kg, po dosing at 1 hr, 4 hrs, and 8 hrs after LPS treatment. In kind it is functional, organism-based.
For series [7], the target named is T1, DNA topoisomerase 1 (Homo sapiens) (UniProt P11387).
T1 sequence (whole entry): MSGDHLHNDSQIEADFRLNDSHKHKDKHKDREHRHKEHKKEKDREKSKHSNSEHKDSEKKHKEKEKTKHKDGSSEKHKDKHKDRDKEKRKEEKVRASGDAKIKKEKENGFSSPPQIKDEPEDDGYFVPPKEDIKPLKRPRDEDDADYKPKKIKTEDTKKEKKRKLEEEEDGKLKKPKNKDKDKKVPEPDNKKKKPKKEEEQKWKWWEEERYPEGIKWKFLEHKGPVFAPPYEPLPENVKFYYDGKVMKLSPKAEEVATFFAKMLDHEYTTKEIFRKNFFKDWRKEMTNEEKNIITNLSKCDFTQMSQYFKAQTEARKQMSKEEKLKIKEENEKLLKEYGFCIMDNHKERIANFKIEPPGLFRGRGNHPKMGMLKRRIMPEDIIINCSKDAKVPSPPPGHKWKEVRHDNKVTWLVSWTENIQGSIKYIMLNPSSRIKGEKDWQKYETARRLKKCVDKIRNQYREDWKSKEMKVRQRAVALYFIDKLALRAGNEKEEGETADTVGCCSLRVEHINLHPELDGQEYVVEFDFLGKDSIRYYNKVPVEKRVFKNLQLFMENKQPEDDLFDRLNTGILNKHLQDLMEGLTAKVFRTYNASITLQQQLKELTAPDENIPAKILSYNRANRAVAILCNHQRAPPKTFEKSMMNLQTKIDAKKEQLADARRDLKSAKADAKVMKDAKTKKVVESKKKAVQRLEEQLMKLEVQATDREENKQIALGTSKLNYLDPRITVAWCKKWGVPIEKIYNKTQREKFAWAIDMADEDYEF
Briefly: Inhibition of human recombinant topoisomerase-1 activity at 100 uM using supercoiled pHOT-1 DNA incubated for 30 mins by ethidium bromide free agarose gel elctrophoresis method.

The target of series [8] is T1, DNA topoisomerase 1 (Homo sapiens). Briefly: Inhibition of human recombinant topoisomerase-1-mediated DNA cleavage in at 50 uM using supercoiled pHOT-1 DNA incubated for 30 mins by ethidium bromide staining based agarose gel elctrophoresis method.
Series [9] deals with Mus musculus. Briefly: Reduction in IL6 level in C57BL/6 mouse model of LPS-induced sepsis at 4 mg/kg, iv dosed 0.5 hrs before LPS injection followed by 4 mg/kg, iv dosing at 1 hr, 4 hrs, and 8 hrs after LPS treatment. In kind it is functional, organism-based.
Series [10] deals with T1, DNA topoisomerase 1 (Homo sapiens). Briefly: Inhibition of human recombinant topoisomerase-1 activity at 50 uM using supercoiled pHOT-1 DNA incubated for 30 mins by ethidium bromide free agarose gel elctrophoresis method.
Series [11] relates to HepG2. Briefly: Antitumor activity against human HepG2 cells xenografted in Balb/C mouse assessed as inhibition of tumor growth at dosed intravenously once per week for 30 days followed by 2 weeks observation. In kind it is functional, organism-based.
Series [12] deals with Mus musculus. Briefly: Reduction in IL6 level in C57BL/6 mouse model of LPS-induced sepsis at 2 mg/kg, iv dosed 0.5 hrs before LPS injection followed by 2 mg/kg, iv dosing at 1 hr, 4 hrs, and 8 hrs after LPS treatment. In kind it is functional, organism-based.
Series [13] addresses T1, DNA topoisomerase 1 (Homo sapiens). Briefly: Inhibition of human recombinant topoisomerase-1-mediated DNA cleavage in at 100 uM using supercoiled pHOT-1 DNA incubated for 30 mins by ethidium bromide staining based agarose gel elctrophoresis method.
In series [14] the test system is Mus musculus. Briefly: Reduction in IL6 level in C57BL/6 mouse model of LPS-induced sepsis at 10 mg/kg, po dosed 0.5 hrs before LPS injection followed by 20 mg/kg, po dosing at 1 hr, 4 hrs, and 8 hrs after LPS treatment. In kind it is functional, organism-based.
Series [15] concerns Mus musculus. Briefly: Reduction in IL6 level in C57BL/6 mouse model of LPS-induced sepsis at 10 mg/kg, po dosed 0.5 hrs before LPS injection followed by 10 mg/kg, po dosing at 1 hr, 4 hrs, and 8 hrs after LPS treatment. In kind it is functional, organism-based.

pIC50: −log10 of the molar value. Activity calls are given as the source filed them. The calls are words filed in the database; no cut-off is given here. Some results are limits rather than exact numbers.

Description for A549: Cytotoxicity in human A549 cells assessed as reduction in cell viability incubated for 48 hrs by MTT assay
Description for MCF7: Cytotoxicity in human MCF7 cells assessed as reduction in cell viability incubated for 48 hrs by MTT assay

Take `CC[C@@]1(OC(=O)CNC(=O)CCC(=O)O)C(=O)OCc2c1cc1n(c2=O)Cc2cc3c(ccc4ocnc43)nc2-1`: the pIC50 is 6.56 in the series with Bel-7402; 7.26 in the series with HepG2 [1]; less than 5.00 in the series on QGY-7703; less than 5.00 in the series with SMMC-7721; 7.19 in the series on MGC-803; 6.46 in the series with MDA-MB-231. For the same molecule, the pIC50 was 7.04 in the series with A549; less than 5.00 with MCF7; 6.04 in the series on KB; 6.46 in the series on SK-N-SH; less than 5.00 in the series with SGC-7901.

On to `CC[C@@]1(O)C(=O)OCc2c1cc1n(c2=O)Cc2cc3c(ccc4oc(CC(C)C)nc43)nc2-1`, for which the pIC50 in the series on Bel-7402 is 5.67; with HepG2 [1], 7.10; in the series with QGY-7703, less than 5.00; with SMMC-7721 it was 4.96; in the series with MGC-803 it was 7.05; in the series on MDA-MB-231, 5.67. The pIC50 was 5.47 in the series on A549, 5.10 in the series with MCF7, 5.66 in the series with KB and less than 5.00 in the series with SGC-7901.

Turning to `CC[C@@]1(O)C(=O)OCc2c1cc1n(c2=O)Cc2cc3c(ccc4oc(-c5ccccn5)nc43)nc2-1`, the pIC50 is 5.71 in the series on Bel-7402; 7.15 in the series with HepG2 [1]; less than 5.00 in the series with QGY-7703; less than 5.00 in the series with SMMC-7721; 7.27 in the series with MGC-803; 5.70 with MDA-MB-231. Also, the pIC50 was 5.82 with A549, 5.19 with MCF7, 5.69 in the series on KB and less than 5.00 in the series with SGC-7901.

For `CC[C@@]1(OC(=O)CNC(=O)CCC(=O)[O-])C(=O)OCc2c1cc1n(c2=O)Cc2cc3c4c(ccc3nc2-1)OC(C(C)C)NC4=O.[Na+]` (some centres undefined), the results for the MTD in the series with Mus musculus [2] and with Mus musculus [3] were 16 mg/kg and 10 mg/kg, respectively. The solubility in series [4] worked out at 3.4 mg/mL.

With `CC[C@@]1(O)C(=O)OCc2c1cc1n(c2=O)Cc2cc3c(ccc4ocnc43)nc2-1`, the pIC50 with Bel-7402 was 5.61; with HepG2 [1], 6.74; with QGY-7703, 4.94; with SMMC-7721, 5.51; with MGC-803 it was 6.64; in the series on MDA-MB-231, 5.81. Also, the pIC50 was 5.69 in the series with A549, 5.64 with MCF7, 5.59 in the series on KB and less than 5.00 in the series with SGC-7901.

For the molecule `CC[C@@]1(OC(=O)CNC(=O)CCC(=O)O)C(=O)OCc2c1cc1n(c2=O)Cc2cc3c4c(ccc3nc2-1)OC(C(C)C)NC4=O` (some centres undefined), the result in the series on Mus musculus [5], in the series with Mus musculus [6], with Mus musculus [9] and with Mus musculus [12] was Active. For the same molecule, the inhibition result in series [7], in series [8] and in series [10] was “inactive” each time. Moreover, the TGI result in the series on HepG2 [11] was “Dose-dependent effect”.

As for `CC[C@@]1(OC(=O)CNC(=O)CCC(=O)O)C(=O)OCc2c1cc1n(c2=O)Cc2cc3c(ccc4oc(C(C)C)nc43)nc2-1`, the inhibition result in [13], in series [7], in series [8] and in series [10] was “Active” in each case. For the same molecule, the outcome in the series with Mus musculus [14] and in the series on Mus musculus [15] was Active. In addition, in the series with HepG2 [11], the TGI result is “Dose-dependent effect”.

For the molecule `CC[C@@]1(O)C(=O)OCc2c1cc1n(c2=O)Cc2cc3c(ccc4oncc43)nc2-1`, the pIC50 in the series with Bel-7402 is 4.98; in the series on HepG2 [1] it was 7.19; with QGY-7703, less than 5.00; in the series with SMMC-7721, less than 5.00; with MGC-803, 6.29; with MDA-MB-231 it was 6.31. The pIC50 in the series on A549 is 5.99; with MCF7 it was 5.94; in the series with KB, 5.48; with SK-N-SH it was 6.33; in the series with SGC-7901 it was less than 5.00.

In the case of `CC[C@@]1(OC(=O)CNC(=O)CCC(=O)O)C(=O)OCc2c1cc1n(c2=O)Cc2cc3c(ccc4oncc43)nc2-1`, the negative logarithm of the IC50 (pIC50) was 5.70 with Bel-7402; 6.46 in the series with HepG2 [1]; less than 5.00 with QGY-7703; less than 5.00 in the series on SMMC-7721; 6.56 with MGC-803; 6.19 in the series on MDA-MB-231. Further, the pIC50 was 5.74 in the series with A549; less than 5.00 in the series with MCF7; 5.15 in the series on KB; 6.26 in the series on SK-N-SH; less than 5.00 in the series with SGC-7901.

As for `CC[C@@]1(OC(=O)CNC(=O)CCC(=O)[O-])C(=O)OCc2c1cc1n(c2=O)Cc2cc3c(ccc4oc(C(C)C)nc43)nc2-1.[Na+]`, the MTD turned out to be 60 mg/kg in the series with Mus musculus [2] and 30 mg/kg in the series with Mus musculus [3]. Moreover, the solubility in series [4] came to 5.07 mg/mL.

As to `CCCCc1nc2c(ccc3nc4c(cc32)Cn2c-4cc3c(c2=O)COC(=O)[C@]3(O)CC)o1`, the negative logarithm of the IC50 (pIC50) was 5.69 in the series with Bel-7402; 7.20 in the series with HepG2 [1]; less than 5.00 in the series on QGY-7703; less than 5.00 with SMMC-7721; 7.07 in the series with MGC-803; 6.25 in the series on MDA-MB-231. For the same molecule, the pIC50 was 5.95 with A549, 5.67 in the series with MCF7, 5.65 with KB and less than 5.00 in the series on SGC-7901.

In general, pIC50 refers to the negative decadic logarithm of the IC50, by convention in mol/L. What is called solubility is the dissolved amount per volume that the medium holds.
